In US11317629B2, “Liquid composition comprising mefentrifluconazole” (SUMITOMO CHEMICAL COMPANY, LIMITED, priority 2019, dated 2022):

Columns and labels:
corn (variety: Pioneer) [1] = test: Phytotoxicity Test Example 1: compositions dripped into the whorl of corn plants, plant length; assay type: in vivo; conditions: 10,000 ppm
Method: Liquid compositions comprising 10,000 ppm of mefentrifluconazole, 1.25 or 10% by volume of an oil adjuvant and water (hereinafter referred to as Present Composition 7 and Present Composition 8) were prepared by diluting mefentrifluconazole SC and an oil adjuvant (COC: Agri-Dex, containing 82% of heavy range paraffinic oil, 17% of surfactant, and 1% of other components, manufactured by Helena), respectively, with water and mixing them. Similarly to the Present Composition 7 and 8, liquid compositions (hereinafter referred to as Present Composition 9 and Present Composition 10) were prepared by replacing Agri-Dex with Sundance II (MSO, containing 90% of methylated seed oil and 10% of alkyl and aryl alkoxylates and phosphate esters). […]
A soil was filled into a plastic pot, and corn (variety: Pioneer) was seeded therein, and grown in a greenhouse for 4 days. […] After dripping, the plants were placed in the greenhouse for 8 days, then the plant lengths were measured. […]
From the plant lengths in each of the treated plants and the non-treated plants, the relative length of the compositions was determined according to the following “Formula 2”. […]

corn (variety: Pioneer) [2] = test: Phytotoxicity Test Example 2: compositions sprayed onto corn plants, plant length; assay type: in vivo; conditions: 2,000 ppm
Method: A liquid composition comprising 2,000 ppm of mefentrifluconazole, 10% by volume of an oil adjuvant and water (hereinafter referred to as Present Composition 13) were prepared by diluting mefentrifluconazole SC and an oil adjuvant (COC: Agri-Dex, containing 82% of heavy range paraffinic oil, 17% of surfactant, and 1% of other components, manufactured by Helena) with water and mixing them. Similarly to the Present Composition 13, a liquid compositions (hereinafter referred to as Present Composition 14) were prepared by replacing Agri-Dex with Sundance II (MSO, containing 90% of methylated seed oil and 10% of alkyl and aryl alkoxylates and phosphate esters). Similarly to the Present Composition 13, a liquid composition (hereinafter referred to as Present Composition 15) were prepared by replacing Agri-Dex with Destiny (HSOC, containing 50% of methylated seed oil, 42% of sorbitan fatty acid esters and high fructose corn syrup, and 8% of other ingredients). […]
A soil was filled into a plastic pot, and corn (variety: Pioneer) was seeded therein, and grown in a greenhouse for 4 days. […] After spraying, the plants were placed in the greenhouse for 8 days, then the plant lengths were measured. […]
From the plant lengths in each of the treated plants and the non-treated plants, the relative length of the compositions was determined according to the above “Formula 2”.

## N#CC(CCc1ccc(Cl)cc1)(Cn1cncn1)c1ccccc1 (stereo not shown) [fenbuconazole]
Corn (variety: Pioneer) [1]; oil adjuvants 1.25 or 10% by volume
  Effect of addition of oil adjuvants on retardation of corn plant: severely enhanced the retardation
Corn (variety: Pioneer) [1]; without adjuvant
  Retardation of corn plant without adjuvant: retarded corn plant slightly
Corn (variety: Pioneer) [2]; oil adjuvants 10% by volume
  Effect of addition of oil adjuvants on corn plant length: enhanced the retardation
Corn (variety: Pioneer) [2]; without adjuvant
  Effect on plant length without adjuvant: did not effect on plant length
